Experimental findings from ChEMBL document CHEMBL1909046, “DrugMatrix in vitro pharmacology data” are described below.

In data set [1] the target is T1, Progesterone receptor (Bos taurus, UniProt Q690N0).
T1 sequence (Q690N0 whole entry): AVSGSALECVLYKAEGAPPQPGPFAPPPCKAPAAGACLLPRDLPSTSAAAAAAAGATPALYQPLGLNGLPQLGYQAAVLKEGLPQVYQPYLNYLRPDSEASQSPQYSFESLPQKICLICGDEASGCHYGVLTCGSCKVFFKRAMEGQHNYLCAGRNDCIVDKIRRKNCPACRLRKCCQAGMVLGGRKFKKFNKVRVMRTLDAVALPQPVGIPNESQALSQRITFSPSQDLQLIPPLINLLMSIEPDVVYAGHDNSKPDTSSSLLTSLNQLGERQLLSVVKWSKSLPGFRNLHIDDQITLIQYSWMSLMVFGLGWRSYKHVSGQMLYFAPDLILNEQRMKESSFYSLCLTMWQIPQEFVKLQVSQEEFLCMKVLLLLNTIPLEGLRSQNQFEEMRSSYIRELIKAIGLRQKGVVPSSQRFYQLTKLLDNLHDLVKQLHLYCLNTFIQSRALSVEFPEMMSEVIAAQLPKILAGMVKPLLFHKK
The data set can be described thus: DRUGMATRIX: Progesterone radioligand binding (ligand: [3H] R-5020). It is filed as tissue-based, Uterus. The conditions noted are these: Not Active = under 50% inhibition at 10 µM.

The target of data set [2] is T2, Alpha-1A adrenergic receptor (Rattus norvegicus, UniProt P43140).
T2 sequence (P43140 whole entry): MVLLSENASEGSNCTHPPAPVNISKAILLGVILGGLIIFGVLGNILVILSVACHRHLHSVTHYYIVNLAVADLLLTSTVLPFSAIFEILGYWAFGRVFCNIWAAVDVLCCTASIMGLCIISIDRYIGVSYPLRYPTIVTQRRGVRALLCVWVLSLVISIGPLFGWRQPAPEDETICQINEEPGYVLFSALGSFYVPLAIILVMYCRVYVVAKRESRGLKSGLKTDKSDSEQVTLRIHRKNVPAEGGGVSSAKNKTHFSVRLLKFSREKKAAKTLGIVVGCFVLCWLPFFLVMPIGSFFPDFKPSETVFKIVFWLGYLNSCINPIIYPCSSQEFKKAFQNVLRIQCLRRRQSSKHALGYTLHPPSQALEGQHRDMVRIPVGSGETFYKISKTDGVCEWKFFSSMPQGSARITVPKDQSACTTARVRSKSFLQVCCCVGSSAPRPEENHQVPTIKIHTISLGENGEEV
Nature of the data set: DRUGMATRIX: Alpha-1A adrenergic receptor radioligand binding (ligand: prazosin). Type of data set: cell membranes, Wistar, Submaxillary gland, Membrane. The conditions noted are these: Not Active = under 50% inhibition at 10 µM; for Ki: read-out: Ki.

Data set [3] in a line: DRUGMATRIX: Platelet-Derived Growth Factor (PDGF) radioligand binding (ligand: [125I] PDGF). The conditions noted are these: nih3t3; Not Active = under 50% inhibition at 10 µM. It is filed as cell-based.
The target of data set [4] is T3, Alpha-1D adrenergic receptor (Homo sapiens, UniProt P25100). Further: in other assays of this panel Not Active means under 50% inhibition at 10 µM.
T3 sequence (P25100 whole entry): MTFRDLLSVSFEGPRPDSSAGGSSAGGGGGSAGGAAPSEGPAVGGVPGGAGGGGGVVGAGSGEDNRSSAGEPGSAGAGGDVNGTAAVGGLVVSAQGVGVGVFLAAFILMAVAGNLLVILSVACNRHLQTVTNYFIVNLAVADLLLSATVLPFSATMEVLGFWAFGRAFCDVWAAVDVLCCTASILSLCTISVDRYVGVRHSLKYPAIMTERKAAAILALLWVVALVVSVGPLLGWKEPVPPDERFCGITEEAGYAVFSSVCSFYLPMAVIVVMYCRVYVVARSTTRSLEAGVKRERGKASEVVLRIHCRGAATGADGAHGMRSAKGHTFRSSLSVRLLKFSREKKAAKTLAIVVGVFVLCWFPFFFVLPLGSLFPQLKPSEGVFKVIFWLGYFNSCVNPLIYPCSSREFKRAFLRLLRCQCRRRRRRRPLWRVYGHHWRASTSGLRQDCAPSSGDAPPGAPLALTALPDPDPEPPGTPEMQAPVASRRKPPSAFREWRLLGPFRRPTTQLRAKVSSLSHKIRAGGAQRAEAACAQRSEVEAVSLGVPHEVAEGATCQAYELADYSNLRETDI
Type of data set: cell membranes, HEK293, Membrane. As to conditions: for Ki: read-out: Ki.

Data set [5] concerns the target T4, C-X-C chemokine receptor type 1 (Homo sapiens, UniProt P25024). Further: in other assays of this panel Not Active means under 50% inhibition at 10 µM.
T4 sequence (P25024 whole entry): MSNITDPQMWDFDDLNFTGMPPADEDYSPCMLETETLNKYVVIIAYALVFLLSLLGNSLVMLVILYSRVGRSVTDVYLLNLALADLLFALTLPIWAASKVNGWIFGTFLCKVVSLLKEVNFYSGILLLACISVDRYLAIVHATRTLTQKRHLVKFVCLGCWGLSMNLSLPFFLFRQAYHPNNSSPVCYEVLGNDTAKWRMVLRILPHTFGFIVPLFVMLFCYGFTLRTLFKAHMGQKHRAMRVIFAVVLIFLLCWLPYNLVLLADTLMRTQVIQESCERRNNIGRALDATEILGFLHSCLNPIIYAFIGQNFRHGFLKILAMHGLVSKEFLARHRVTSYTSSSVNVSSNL

For data set [6], the target named is Protein kinase C alpha type (Homo sapiens, UniProt P17252). It is filed as cell-based. The conditions noted are these: sf9.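 Further: inhibition of PKCalpha kinase activity measured in an enzyme assay with histone as the phosphorylation substrate; in other assays of this panel Not Active means under 50% inhibition at 10 µM.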
Data set [7] has as its target Cytochrome P450 3A4 (Homo sapiens, UniProt P08684). The conditions noted are these: bti-tn-5b1-4. Further: in other assays of this panel Not Active means under 50% inhibition at 10 µM.

Sequence of Cytochrome P450 3A4 (P08684 whole entry): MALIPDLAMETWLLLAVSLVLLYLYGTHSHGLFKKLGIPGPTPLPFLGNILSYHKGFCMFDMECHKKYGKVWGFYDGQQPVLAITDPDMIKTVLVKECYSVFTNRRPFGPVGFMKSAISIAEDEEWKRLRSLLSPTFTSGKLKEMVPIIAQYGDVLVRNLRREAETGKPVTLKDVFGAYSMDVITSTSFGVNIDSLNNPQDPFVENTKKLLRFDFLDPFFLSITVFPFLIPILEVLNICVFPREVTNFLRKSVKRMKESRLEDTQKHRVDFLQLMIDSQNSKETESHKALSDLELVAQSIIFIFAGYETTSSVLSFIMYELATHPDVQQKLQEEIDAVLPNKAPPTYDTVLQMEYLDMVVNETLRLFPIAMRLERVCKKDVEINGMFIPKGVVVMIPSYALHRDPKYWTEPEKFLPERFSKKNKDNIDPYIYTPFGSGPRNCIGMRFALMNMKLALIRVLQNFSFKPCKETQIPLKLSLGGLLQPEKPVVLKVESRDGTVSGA

One may read the IC50 as the concentration at which inhibition is half-maximal. By Ki is commonly meant a measure of affinity in units of concentration, obtained from inhibition or displacement. `N[C@@H](Cc1ccc(F)cc1)C(=O)O`: the IC50 entry in data set [1], in data set [2], in data set [3], in data set [4] (hek293), in data set [5] and in data set [6] was “Not Active” each time. Also, the Ki entry in data set [3] is on record as “Not Active”.
Take `CCOC(=O)[C@H](CCc1ccccc1)N[C@@H](C)C(=O)N1CCC[C@H]1C(=O)O`: the half-maximal inhibitory concentration (IC50) result in data set [2], in data set [3], in data set [4] (hek293), in data set [5], in data set [7] and in data set [6] was “Not Active” in each case. The inhibition constant (Ki) entry in data set [3] and in data set [7] was “Not Active” in each case.
Regarding `C[C@@H]1CC[C@H]2[C@@H](C)C(=O)O[C@@H]3O[C@@]4(C)CC[C@@H]1[C@]32OO4` [ARTEMISININ], the IC50 result in data set [1], in data set [2], in data set [3], in data set [4] (hek293), in data set [5] and in data set [6] was “Not Active” each time. In addition, the inhibitory constant (Ki) result in data set [3] is listed as “Not Active”.
On to `CC[C@H]1OC(=O)[C@H](C)[C@@H](O[C@H]2C[C@@](C)(OC)[C@@H](O)[C@H](C)O2)[C@H](C)[C@@H](O[C@@H]2O[C@H](C)C[C@H](N(C)C)[C@H]2O)[C@](C)(O)C[C@@H](C)CN(C)[C@H](C)[C@@H](O)[C@]1(C)O` [AZITHROMYCIN], for which the concentration for half-maximal inhibition (IC50) entry in data set [1], in data set [2], in data set [3], in data set [4] (hek293), in data set [5] and in data set [6] was “Not Active” throughout. Also, the inhibitory constant (Ki) entry in data set [3] is listed as “Not Active”.
As to `CC(C)C[C@H]1C(=O)N2CCC[C@H]2[C@]2(O)O[C@](NC(=O)[C@@H]3C=C4c5cccc6[nH]c(Br)c(c56)C[C@H]4N(C)C3)(C(C)C)C(=O)N12` [BROMOCRIPTINE], the IC50 entry in data set [1] is “Not Active”; in data set [2] (read-out: IC50) it was 6.96 nM; in data set [3], “Not Active”; in data set [4] (read-out: IC50), 30 nM; in data set [5] it was “Not Active”; in data set [6] it was “Not Active”. The Ki in data set [2] was 2.82 nM; in data set [3], “Not Active”; in data set [4] it was 15 nM.
Consider `CCC[C@@H]1C[C@@H](C(=O)N[C@@H]([C@H]2O[C@H](SC)[C@H](O)[C@@H](O)[C@H]2O)[C@H](C)Cl)N(C)C1` [CLINDAMYCIN], for which the IC50 entry in data set [1], in data set [2], in data set [3], in data set [4] (hek293), in data set [5] and in data set [6] was “Not Active” in each case. For the same compound, the inhibition constant (Ki) result in data set [3] is reported as “Not Active”.
Turning to `CN1C(=O)CN=C(c2ccccc2)c2cc(Cl)ccc21` [DIAZEPAM], the IC50 entry in data set [1], in data set [2], in data set [3], in data set [4] (hek293), in data set [5] and in data set [6] was “Not Active” throughout. The Ki result in data set [3] is “Not Active”.
For the compound `CN1C[C@H](C(=O)N[C@]2(C)O[C@@]3(O)[C@@H]4CCCN4C(=O)[C@H](Cc4ccccc4)N3C2=O)C[C@@H]2c3cccc4[nH]cc(c34)C[C@H]21` [DIHYDROERGOTAMINE], the IC50 result in data set [1] was “Not Active”; in data set [2] (read-out: IC50) it was 5.03 nM; in data set [3], “Not Active”; in data set [4] (read-out: IC50), 29 nM; in data set [5] it was “Not Active”; in data set [6] it was “Not Active”. Also, the inhibition constant (Ki) was 2.03 nM in data set [2], “Not Active” in data set [3] and 14 nM in data set [4].
`CCOC(=O)C1=C(C)NC(C)=C(C(=O)OC)C1c1cccc(Cl)c1Cl` (configuration not stated) [FELODIPINE]: the half-inhibitory concentration (IC50) entry in data set [1], in data set [2], in data set [3], in data set [4] (hek293), in data set [5] and in data set [6] was “Not Active” throughout. Moreover, the inhibition constant (Ki) result in data set [3] is listed as “Not Active”.
For `CC(C(=O)O)c1ccc(-c2ccccc2)c(F)c1` (configuration not stated) [FLURBIPROFEN], the half-maximal inhibitory concentration (IC50) entry in data set [2], in data set [3], in data set [4] (hek293), in data set [5], in data set [7] and in data set [6] was “Not Active” in each case. Also, the Ki result in data set [3] and in data set [7] was “Not Active” in each case.
For the compound `Cc1cn[nH]c1` [FOMEPIZOLE], the IC50 result in data set [1], in data set [2], in data set [3], in data set [4] (hek293), in data set [5] and in data set [6] was “Not Active” in each case. The Ki entry in data set [3] is given as “Not Active”.
As for `Cc1cnc(C(=O)NCCc2ccc(S(=O)(=O)NC(=O)NC3CCCCC3)cc2)cn1` [GLIPIZIDE], the half-maximal inhibitory concentration (IC50) entry in data set [1], in data set [2], in data set [3], in data set [4] (hek293), in data set [5] and in data set [6] was “Not Active” in each case. Further, the inhibitory constant (Ki) result in data set [3] is “Not Active”.
Regarding `COc1ccccc1OCC(O)CO` (configuration not stated) [GUAIFENESIN], the 50% inhibitory concentration (IC50) result in data set [1], in data set [2], in data set [3], in data set [4] (hek293), in data set [5] and in data set [6] was “Not Active” throughout. For the same compound, the inhibition constant Ki entry in data set [3] is “Not Active”.
Take `N=C(N)N/N=C/c1c(Cl)cccc1Cl` [GUANABENZ]: the 50% inhibitory concentration (IC50) result in data set [1] was “Not Active”; in data set [3] it was “Not Active”; in data set [4] (read-out: IC50) it was 472 nM; in data set [5] it was “Not Active”; in data set [7], “Not Active”; in data set [6] it was “Not Active”. The figures for the inhibition constant Ki result in data set [3], in data set [4] and in data set [7] were “Not Active”, 232 nM and “Not Active”, respectively.
For the compound `C/C=C\c1ccc(O)c(OC)c1` [ISOEUGENOL], the half-inhibitory concentration (IC50) entry in data set [1], in data set [2], in data set [3], in data set [4] (hek293), in data set [5] and in data set [6] was “Not Active” in each case. The inhibitory constant (Ki) entry in data set [3] is listed as “Not Active”.
Regarding `CC[C@H](C)C(=O)O[C@H]1C[C@@H](C)C=C2C=C[C@H](C)[C@H](CC[C@@H]3C[C@@H](O)CC(=O)O3)[C@H]21` [LOVASTATIN], the IC50 result in data set [1], in data set [2], in data set [3], in data set [4] (hek293), in data set [5] and in data set [6] was “Not Active” in each case. Besides, the Ki entry in data set [3] is recorded as “Not Active”.
Regarding `OCCN1CCN(CCCN2c3ccccc3Sc3ccc(Cl)cc32)CC1` [PERPHENAZINE], the IC50 result in data set [1], in data set [2], in data set [3], in data set [4] (hek293), in data set [5] and in data set [6] was “Not Active” in each case. In data set [3], the inhibition constant Ki result is “Not Active”.
